Assay results from patent publication US5766848A (Synaptic Pharmaceutical Corporation, priority 1994, dated 1998).
“And” between values parts separate entries of the source, which are not always exact repeats. Equal entries are not always repeated. Structures can show the parent of a compound that is named as a salt. Where two headings read alike, the source gives them in different places. Blank lines part the entries; values can stand above or below the molecule they belong to.

Experiments:
brain synaptosomes = conditions: Ali et al. (1985); cited from earlier work
human GAT-3 = target: T1, human GAT-3 (Homo sapiens, UniProt P48066); assay: Inhibition of [3H]GABA uptake, human GAT-3 stable LM(tk-) cell line; type: cell-based; conditions: read-out: IC50, human GAT-3, inhibition of [3H]GABA uptake, Table 9, means ± S.E.M.
T1 construct: expressed in transfected cells
T1 sequence (P48066 1-632): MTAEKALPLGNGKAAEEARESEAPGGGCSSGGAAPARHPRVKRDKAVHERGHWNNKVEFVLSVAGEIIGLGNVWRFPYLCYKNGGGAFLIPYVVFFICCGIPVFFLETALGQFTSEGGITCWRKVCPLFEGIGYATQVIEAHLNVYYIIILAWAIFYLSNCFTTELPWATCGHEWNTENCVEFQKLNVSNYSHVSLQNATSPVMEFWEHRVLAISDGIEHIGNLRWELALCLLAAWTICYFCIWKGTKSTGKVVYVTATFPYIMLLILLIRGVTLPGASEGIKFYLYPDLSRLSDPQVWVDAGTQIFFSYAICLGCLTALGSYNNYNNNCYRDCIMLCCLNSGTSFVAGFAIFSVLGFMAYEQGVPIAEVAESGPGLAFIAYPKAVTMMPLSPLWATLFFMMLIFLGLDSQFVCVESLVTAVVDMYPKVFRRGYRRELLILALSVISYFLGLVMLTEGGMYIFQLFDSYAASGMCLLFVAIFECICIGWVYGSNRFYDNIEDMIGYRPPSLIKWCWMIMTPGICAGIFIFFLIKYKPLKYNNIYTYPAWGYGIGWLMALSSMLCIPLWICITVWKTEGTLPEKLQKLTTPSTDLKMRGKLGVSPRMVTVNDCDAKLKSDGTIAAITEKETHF
Protocol: (§2) Cells were grown under standard conditions (37° C., 5% CO2) in DMEM (Dulbecco's modified Eagles's medium; GIBCO, Grand Island, N.Y.).
(§3) Cells grown in 24-well plates were washed 3× with HEPES-buffered saline (HBS, in mM: NaCl, 150; HEPES, 20; CaCl2, 1; glucose, 10; KCl, 5; MgCl2 1; pH 7.4) and allowed to equilibrate on a 37° C. slide warmer. After 10 minutes the medium was removed and unlabeled drugs in HBS were added (450 μl/well). […] Plates were incubated at 37° C. for 10 minutes, then washed rapidly 3× with ice-cold HBS, using a 24-position plate washer (Brandel, Gaithersburg, Mass.; model PW-12). Cells were solubilized with 0.05% sodium deoxycholate/0.1N NaOH (0.25 ml/well), an aliquot neutralized with 1N HCl, and radioactivity was determined by scintillation counting. Protein was quantified in an aliquot of the solubilized cells using a BIO-RAD protein assay kit, according to the manufacturer's directions.
(§4) Competition curves were conducted in duplicate, using 10 concentrations of unlabeled drug. […] All data throughout the paper represent means±S.E.M.

[1] = literature reports; cited from earlier work
mouse GAT-2 [2] = target: T2, mouse GAT-2 (Mus musculus, UniProt P31651); conditions: from Table 1
T2 sequence (P31651 1-614): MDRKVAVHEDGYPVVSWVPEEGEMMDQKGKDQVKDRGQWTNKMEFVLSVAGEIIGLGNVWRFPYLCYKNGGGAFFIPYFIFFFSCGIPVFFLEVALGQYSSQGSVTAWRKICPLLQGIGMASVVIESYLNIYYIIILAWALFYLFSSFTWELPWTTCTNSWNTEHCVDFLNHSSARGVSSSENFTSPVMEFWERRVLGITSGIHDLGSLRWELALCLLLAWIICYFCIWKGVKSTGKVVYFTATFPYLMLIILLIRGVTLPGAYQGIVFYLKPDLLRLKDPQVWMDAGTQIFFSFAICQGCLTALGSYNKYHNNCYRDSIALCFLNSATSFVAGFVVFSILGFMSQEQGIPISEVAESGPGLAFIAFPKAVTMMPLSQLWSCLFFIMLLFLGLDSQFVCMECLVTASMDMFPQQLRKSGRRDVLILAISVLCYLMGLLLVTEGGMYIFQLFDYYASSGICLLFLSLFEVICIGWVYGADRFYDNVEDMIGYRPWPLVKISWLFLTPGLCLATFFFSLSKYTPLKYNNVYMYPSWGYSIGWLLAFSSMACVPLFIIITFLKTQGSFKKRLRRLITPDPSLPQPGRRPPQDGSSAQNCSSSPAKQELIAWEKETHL

mouse GAT-2 [3] = target: T2, mouse GAT-2; parameters: host or cells: oocytes (Lopez-Corcuera et al., 1992); conditions: read-out: IC50, mouse GAT-2, inhibition of [3H]GABA uptake; oocytes (Lopez-Corcuera et al., 1992); except GABA estimated from percent inhibition at one or two concentrations; cited from earlier work
human BGT-1 [4] = target: T3, human BGT-1 (Homo sapiens, UniProt P48065); assay: cell-based
T3 sequence (P48065 1-614 C10Y): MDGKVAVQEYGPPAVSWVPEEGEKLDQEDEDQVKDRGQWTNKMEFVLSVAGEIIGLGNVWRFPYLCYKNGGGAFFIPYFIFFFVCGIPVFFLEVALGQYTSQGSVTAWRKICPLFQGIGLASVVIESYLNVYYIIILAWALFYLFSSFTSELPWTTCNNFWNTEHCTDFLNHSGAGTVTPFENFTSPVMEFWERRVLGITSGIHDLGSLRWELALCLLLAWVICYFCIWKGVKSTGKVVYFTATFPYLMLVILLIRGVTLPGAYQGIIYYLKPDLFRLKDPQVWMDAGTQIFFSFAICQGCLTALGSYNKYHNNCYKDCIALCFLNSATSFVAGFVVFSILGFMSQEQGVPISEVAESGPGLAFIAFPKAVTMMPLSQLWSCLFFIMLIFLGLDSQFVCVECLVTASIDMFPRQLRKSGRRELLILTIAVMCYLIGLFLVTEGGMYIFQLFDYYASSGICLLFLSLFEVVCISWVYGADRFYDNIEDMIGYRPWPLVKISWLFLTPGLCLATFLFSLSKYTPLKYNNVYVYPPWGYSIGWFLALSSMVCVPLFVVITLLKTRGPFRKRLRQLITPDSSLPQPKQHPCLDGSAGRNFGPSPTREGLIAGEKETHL
Protocol: (§5) Cells were grown under standard conditions (37° C., 5% CO2) in Dulbecco's modified Eagles's medium (GIBCO, Grand Island, N.Y.).
(§6) After 10 minutes the medium was removed and unlabeled drugs in HBS were added (450 μl/well). […] Plates were incubated at 37° C. for 10 minutes, then washed rapidly 3× with ice-cold HBS, using a 24-position plate washer (Brandel, Gaithersburg, Mass.; model PW-12). Cells were solubilized with 0.05% sodium deoxycholate/0.1N NaOH (0.25 ml/well), an aliquot neutralized with 1N HCl, and radioactivity was determined by scintillation counting. Protein was quantified in an aliquot of the solubilized cells using a BIO-RAD protein assay kit, according to the manufacturer's directions.
(§7) Data Analysis: Competition curves were conducted in duplicate, using 10 concentrations of unlabeled drug. […] All data throughout the paper represent means±SEM.
as §2, §3, §4

human BGT-1 [5] = target: T3, human BGT-1
Protocol: as §5, §6, §7, §2, §3, §4

rat brain aggregates = assay: Inhibition of [3H]GABA uptake in rat brain aggregates; type: cell-based; conditions: read-out: IC50, control, inhibition of [3H]GABA uptake in rat brain aggregates
Protocol: Briefly, adult rat brains were removed from the skull and the cerebral cortex was dissected and placed in ice-cold HBS. […] The preparation was washed once by centrifugation, then resuspended in HBS.
The filters were washed with ice-cold HBS, punched into vials, and radioactivity determined by scintillation counting. Protein was determined in an aliquot of the aggregate preparation using the BIO-RAD protein assay kit.
(§1) Data represent means±SEM.

Type 1 astrocytes = assay: Inhibition of [3H]GABA uptake in Type 1 astrocyte cultures; type: cell-based, rat; conditions: read-out: IC50, Type 1 astrocytes, inhibition of [3H]GABA uptake
Protocol: Preparation of primary rat astrocyte cell cultures: Primary glial cultures were established from newborn Sprague-Dawley rat brains. Brains minus cerebella were removed aseptically and carefully dissected free of meninges. […] The cells were dissociated by trituration through a serological pipet. Separate procedures were then used for the preparation of Type-1 and O-2A/Type-2 astrocyte cultures, as will now be described.
For the preparation of Type-1 astrocyte cultures, cells were plated onto uncoated 75 cm^2 flasks at low density (1 brain per 10 flasks, or approximately 8×10^4 cells/cm^2). The medium was changed the following day and twice a week thereafter.
as §1

neuronal cultures = assay: Inhibition of [3H]GABA uptake in primary rat neuronal cultures; type: cell-based
Protocol: Brains were removed aseptically from E17 embryonic Sprague-Dawley rats brains, carefully dissected free of meninges, and kept on ice. A single-cell suspension was made by mincing the brains, followed by trituration through a serological pipet. […] On day three cytosine β-D-arabinofuransoside (3 μM) was added to control the proliferation of non-neuronal cells. The cultures were used for transport assay approximately one week after plating.
as §1

GAT-2 and GAT-3 [6] = assay: Inhibition of [3H]GABA uptake at cloned GAT-2 and GAT-3, text summary; conditions: read-out: IC50s at GAT-2 and GAT-3 (range); range over clones, regardless of species
Protocol: as §2, §3, §4

dog BGT-1 = conditions: read-out: IC50, dog VGT-1, inhibition of [3H]GABA uptake; oocytes (Yamauchi et al., 1992); except GABA estimated from percent inhibition at a single concentration; cited from earlier work
GAT-1 = conditions: range over compounds and human/rat clones
Protocol: as §2, §3, §4

GAT-2 and GAT-3 [7] = conditions: range over clones, regardless of species
Protocol: as §2, §3, §4

human GAT-1 = human GAT-1 (Homo sapiens, UniProt P30531); conditions: read-out: IC50, human GAT-1, inhibition of [3H]GABA uptake; Table 9; stable LM(tk-) cell line; means ± S.E.M.
Protocol: as §2, §3, §4

rat GAT-2 = target: T4, rat GAT-2 (Rattus norvegicus, UniProt P31646); assay: Inhibition of [3H]GABA uptake, rat GAT-2 stable LM(tk-) cell line; type: cell-based; conditions: read-out: IC50, rat GAT-2, inhibition of [3H]GABA uptake, Table 9, means ± S.E.M.
T4 construct: expressed in transfected cells
T4 sequence (P31646 1-602): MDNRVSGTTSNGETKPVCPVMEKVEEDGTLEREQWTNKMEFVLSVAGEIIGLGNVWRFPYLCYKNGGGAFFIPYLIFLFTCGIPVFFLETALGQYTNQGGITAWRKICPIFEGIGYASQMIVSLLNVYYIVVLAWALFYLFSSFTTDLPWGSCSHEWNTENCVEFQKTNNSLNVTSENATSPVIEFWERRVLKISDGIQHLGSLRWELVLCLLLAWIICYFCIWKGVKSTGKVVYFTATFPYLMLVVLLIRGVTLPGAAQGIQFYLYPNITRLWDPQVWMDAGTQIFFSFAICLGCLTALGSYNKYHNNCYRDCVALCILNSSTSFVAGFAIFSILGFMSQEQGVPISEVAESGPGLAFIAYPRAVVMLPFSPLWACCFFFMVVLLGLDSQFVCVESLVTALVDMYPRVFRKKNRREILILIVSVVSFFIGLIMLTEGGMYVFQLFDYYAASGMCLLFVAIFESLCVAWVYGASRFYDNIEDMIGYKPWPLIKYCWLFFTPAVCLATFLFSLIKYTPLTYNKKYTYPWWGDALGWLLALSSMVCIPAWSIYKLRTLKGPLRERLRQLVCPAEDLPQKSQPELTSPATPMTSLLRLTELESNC
Protocol: as §2, §3, §4

[8] = Phase II clinical trials; cited from earlier work
[9] = IC50, hBGT-1, inhibition of [3H]GABA uptake, stably transfected LM(tk-), 50 nM [3H]GABA, mean ± standard error of at least three experiments
[10] = Rattus norvegicus, Astrocyte, 3 h
[11] = IC50, hBGT-1, inhibition of [3H]GABA uptake

Chain of human GAT-1 (P30531 whole entry): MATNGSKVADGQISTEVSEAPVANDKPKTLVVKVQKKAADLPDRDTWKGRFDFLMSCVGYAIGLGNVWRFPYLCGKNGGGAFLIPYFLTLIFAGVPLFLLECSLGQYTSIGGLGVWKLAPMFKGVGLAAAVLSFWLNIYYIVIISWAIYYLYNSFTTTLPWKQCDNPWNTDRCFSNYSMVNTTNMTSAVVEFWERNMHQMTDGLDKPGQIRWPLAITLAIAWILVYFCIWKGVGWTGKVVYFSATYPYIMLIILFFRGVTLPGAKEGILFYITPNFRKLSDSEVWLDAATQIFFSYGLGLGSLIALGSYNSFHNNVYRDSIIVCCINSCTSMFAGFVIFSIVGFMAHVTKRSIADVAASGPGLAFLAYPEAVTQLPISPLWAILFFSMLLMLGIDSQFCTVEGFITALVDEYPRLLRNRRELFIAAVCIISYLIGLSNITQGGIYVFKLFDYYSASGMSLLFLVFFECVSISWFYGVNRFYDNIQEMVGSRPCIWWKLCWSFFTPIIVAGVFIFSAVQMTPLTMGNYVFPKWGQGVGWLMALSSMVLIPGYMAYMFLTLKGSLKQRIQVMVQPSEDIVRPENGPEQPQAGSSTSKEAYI

Molecule: O=C(O)C1CCCN(CCC=C(c2ccccc2)c2ccccc2)C1 (stereo not drawn) [SK&F 89976-A, N-(4,4-diphenyl-3-butenyl)-3-piperidinecarboxylic acid]
- increase in potency over the parent compound (nipecotic acid or guvacine) (brain synaptosomes): 20 fold
- IC50 (human GAT-3): 944 ± 259 µM
- anticonvulsive activity in animals [1]: display anticonvulsive activity

Molecule: C[N+](C)(C)CC(=O)O [betaine]
- selectivity (potency) for mouse BGT-1 as compared to dog BGT-1 (mouse GAT-2 [2]): 2 fold
- selectivity (potency) for mouse BGT-1 as compared to human BGT-1 (mouse GAT-2 [2]): 5 fold
- IC50 (mouse GAT-2 [3]): 206 µM
- IC50 (human BGT-1 [4]; [9]): 934 ± 22 µM
- IC50 (human BGT-1 [4]; IC50 at hBGT-1 as stated in text, stable LM(tk-) cells, [3H]GABA uptake): 1000 to 2000 µM

Molecule: hydroxynipecotic acid
- IC50 (human BGT-1 [5]; read-out: IC50, hBGT-1, inhibition of [3H]GABA uptake): 2590 µM
- IC50 (rat brain aggregates; absence of NNC-711): 10 ± 1 µM

Molecule: NCCS(=O)(=O)O [taurine]
- IC50 (Type 1 astrocytes; [10]): ~50 µM
- IC50 (Type 1 astrocytes): 47 ± 10 µM
- IC50 (neuronal cultures; Neuron, read-out: IC50, Neurons, inhibition of [3H]GABA uptake): 8300 µM
- IC50 (rat brain aggregates; Rattus norvegicus): 64000 µM
- IC50 (human BGT-1 [4]; [11]): 10600 µM
- IC50 (human BGT-1 [4]; IC50 at hBGT-1 as stated in text): > 10000 µM

Molecule: NCCC(=O)O [β-alanine]
- IC50 (GAT-2 and GAT-3 [6]): 19 to 110 µM
- IC50 (mouse GAT-2 [3]): 1900 µM

Molecule: C=C[C@H]1C[N@@]2CC[C@H]1C[C@@H]2[C@@H](O)c1ccnc2ccc(OC)cc12 [quinidine]
- IC50 (mouse GAT-2 [3]): 49 µM
- IC50 (human BGT-1 [4]; [11]): 1190 µM

Molecule: N[C@@H]1CCC[C@H](C(=O)O)C1 (relative stereo) [ACHC, cis-3-aminocyclohexanecarboxylic acid]
- IC50 (human BGT-1 [4]; [11]): 1850 µM

- IC50 (human BGT-1 [4]; [9]): 160 to 600 µM and 160 µM
Molecule: O=C(CCc1ccc(O)cc1)c1c(O)cc(O)cc1O [phloretin]

- IC50 (human BGT-1 [4]; [9]): 160 to 600 µM
Molecule: O=C(O)C1=CCCN(CCON=C(c2ccccc2)c2ccccc2)C1 [NNC-711, 1-(2-(((diphenylmethylene)amino)oxy)ethyl)-1,2,4,6-tetrahydro-3-pyridinecarboxylic acid hydrochloride]
- activity at 10 µM (neuronal cultures; read-out: specific [3H]GABA uptake that persisted in neuronal cultures): 31 ± 1%

- IC50 (human BGT-1 [4]; [9]): 1520 µM
Molecule: N=C(N)NCCS(=O)(=O)O [GES, guanidinoethanesulfonic acid]

Molecule: O=C(O)C1CCCNC1 (racemic) [(±)-nipecotic acid, (R,S)-nipecotic acid]
- IC50 (dog BGT-1): 4700 µM

- IC50 (human GAT-3): 119 ± 24 µM
- IC50s at GAT-1 (range) (GAT-1): 14 to 39 µM
- IC50s at GAT-2 and GAT-3 (range) (GAT-2 and GAT-3 [7]): 102 to 378 µM
- IC50 (human GAT-1): 14 ± 3 µM
- IC50 (rat GAT-2): 58 ± 5 µM
Molecule: O=C(O)C1=CCCNC1 [guvacine]
- IC50 (mouse GAT-2 [3]): 2800 µM

- IC50 (human BGT-1 [5]; read-out: IC50, human BGT-1, inhibition of [3H]GABA uptake, Table 9, stable LM(tk-) cell line, means ± S.E.M.): 1670 ± 722 µM
- IC50 (human GAT-3): 917 ± 193 µM
- IC50 (rat GAT-2): 1410 ± 250 µM
Molecule: Cc1ccsc1C(=CCCN1CCC[C@@H](C(=O)O)C1)c1sccc1C [Tiagabine, (R)-1-[4,4-Bis(3-methyl-2-thienyl)-3-butenyl]-3-piperidencarboxylic acid]
- anti-seizure activity in patients [8]: demonstrated anti-seizure activity
- anticonvulsive activity in animals [1]: display anticonvulsive activity

- IC50 (human BGT-1 [4]; [11]): 160 to 600 µM and 380 µM
Molecule: NCCS(=O)O [hypotaurine]

Molecule: NCC[C@H](N)C(=O)O [L-DABA, L-(2,4)diaminobutyric acid]
- IC50 (Type 1 astrocytes; [10]): 3400 µM
- IC50 (dog BGT-1): 4700 µM
- IC50 (human BGT-1 [4]; [11]): 160 to 600 µM and 354 µM

Molecule: O=C(O)C1=CCCN(CCC=C(c2ccccc2)c2ccccc2)C1 [SK&F 100330-A]
- increase in potency over the parent compound (nipecotic acid or guvacine) (brain synaptosomes): 20 fold
